Experimental data from PubChem BioAssay AID330 (DTP/NCI, 2004).
Where “and” joins values, the source holds several entries; their conditions need not be identical. Identical values can stand only once. Toxic doses and inconclusive results are not listed. How the source made its calls: active means survival T/C of 150% or more; inactive means T/C below 125% in these data.

Tested on: P388 leukemia ip, CD2F1 mice, survival T/C
Test: NCI In Vivo Anticancer Drug Screen. Data for tumor model P388 Leukemia (intraperitoneal) in CD2F1 (CDF1) mice
Details: endpoint: median survival time, higher = longer survival
Summary of the method: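 Mice carrying the transplanted tumor received test compound or vehicle. Survival was recorded in each group, and the value is the treated-group measurement divided by that of the vehicle-treated control group.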

[1] = dose: 60.0 mg/kg/injection, schedule: Q01DX005 (ip), vehicle: saline with Tween-80
[2] = dose: 120.0 mg/kg/injection, schedule: Q01DX005 (ip), vehicle: saline with Tween-80
[3] = dose: 240.0 mg/kg/injection, schedule: Q01DX005 (ip), vehicle: saline with Tween-80
[4] = dose: 50.0 mg/kg/injection, schedule: Q01DX005 (ip), vehicle: Klucel (hydroxypropylcellulose) (HPC)
[5] = dose: 12.5 mg/kg/injection, schedule: Q01DX009 (ip), vehicle: saline
[6] = dose: 50.0 mg/kg/injection, schedule: Q01DX005 (ip), vehicle: saline with Tween-80
[7] = dose: 100.0 mg/kg/injection, schedule: Q01DX005 (ip), vehicle: saline with Tween-80
[8] = dose: 200.0 mg/kg/injection, schedule: Q01DX005 (ip), vehicle: saline with Tween-80
[9] = dose: 50.0 mg/kg/injection, schedule: Q01DX009 (ip), vehicle: Klucel (hydroxypropylcellulose) (HPC)
[10] = dose: 100.0 mg/kg/injection, schedule: Q01DX009 (ip), vehicle: Klucel (hydroxypropylcellulose) (HPC)

Measured: T/C

O=C(Nc1ccccc1C(=O)NCC1CC1)c1cccs1
inactive: [1] 106 % of control | [2] 100 % of control | [3] 99 % of control

C=C1N=NN(c2ccc([N+](=O)[O-])cc2)C1N1CCOCC1 (stereo not given)
inactive: dose: 60.0 mg/kg/injection, schedule: Q01DX005 (ip), vehicle: Klucel (hydroxypropylcellulose) (HPC) 100 % of control | dose: 120.0 mg/kg/injection, schedule: Q01DX005 (ip), vehicle: Klucel (hydroxypropylcellulose) (HPC) 101 % of control | dose: 240.0 mg/kg/injection, schedule: Q01DX005 (ip), vehicle: Klucel (hydroxypropylcellulose) (HPC) 105 % of control

Nc1cc(Cl)c(N(CCO)C2=NCCN2)c(Cl)c1
inactive: dose: 12.5 mg/kg/injection, schedule: Q01DX005 (ip), vehicle: Klucel (hydroxypropylcellulose) (HPC) 92 % of control | dose: 25.0 mg/kg/injection, schedule: Q01DX005 (ip), vehicle: Klucel (hydroxypropylcellulose) (HPC) 88 % of control | [4] 105 % of control and 89 % of control

COc1nc(NC2OCC(OC(C)=O)C(OC(C)=O)C2OC(C)=O)c(N=CC=Nc2c(NC3OCC(OC(C)=O)C(OC(C)=O)C3OC(C)=O)nc(OC)n(C)c2=O)c(=O)n1C (stereo not given)
inactive: [1] 92 % of control | [2] 91 % of control | [3] 91 % of control

O=C1CCCC/C1=C/c1ccccc1
inactive: dose: 25.0 mg/kg/injection, schedule: Q01DX005 (ip), vehicle: distilled water + Tween-80 + alcohol 98 % of control | dose: 50.0 mg/kg/injection, schedule: Q01DX005 (ip), vehicle: distilled water + Tween-80 + alcohol 98 % of control | dose: 100.0 mg/kg/injection, schedule: Q01DX005 (ip), vehicle: distilled water + Tween-80 + alcohol 100 % of control | dose: 200.0 mg/kg/injection, schedule: Q01DX005 (ip), vehicle: distilled water + Tween-80 + alcohol 98 % of control

CC(=O)CC(=O)OCc1ccccc1
inactive: dose: 100.0 mg/kg/injection, schedule: Q04DX003 (ip), vehicle: saline with Tween-80 100 % of control | dose: 200.0 mg/kg/injection, schedule: Q04DX003 (ip), vehicle: saline with Tween-80 100 % of control | dose: 400.0 mg/kg/injection, schedule: Q04DX003 (ip), vehicle: saline with Tween-80 100 % of control

Cc1ccccc1C1NC(c2ccccc2C)C2CCCC1C2=O (stereo not given)
inactive: dose: 100.0 mg/kg/injection, schedule: Q04DX003 (ip), vehicle: saline 89 % of control | dose: 200.0 mg/kg/injection, schedule: Q04DX003 (ip), vehicle: saline 96 % of control | dose: 400.0 mg/kg/injection, schedule: Q04DX003 (ip), vehicle: saline 93 % of control

Cc1nc2[nH]c(=S)[nH]c(=O)c2[nH]c1=O
inactive: [5] 97 % of control | dose: 25.0 mg/kg/injection, schedule: Q01DX009 (ip), vehicle: saline 114 % of control | dose: 50.0 mg/kg/injection, schedule: Q01DX009 (ip), vehicle: saline 120 % of control | dose: 100.0 mg/kg/injection, schedule: Q01DX009 (ip), vehicle: saline 120 % of control

C=C(C)C1(C(=O)OCC(Cl)(Cl)Cl)NC(=O)C(NC(=O)COc2ccccc2)=CO1 (stereo not given)
inactive: [6] 99 % of control | [7] 88 % of control | [8] 95 % of control

COC(=O)C1=C/N(C)CCC/C(C(N)=O)=C\1
inactive: [4] 89 % of control | dose: 100.0 mg/kg/injection, schedule: Q01DX005 (ip), vehicle: Klucel (hydroxypropylcellulose) (HPC) 102 % of control | dose: 200.0 mg/kg/injection, schedule: Q01DX005 (ip), vehicle: Klucel (hydroxypropylcellulose) (HPC) 94 % of control

N#CCC[P+](CCC#N)(CCC#N)CCN1C(=O)c2ccccc2C1=O
inactive: dose: 0.78 mg/kg/injection, schedule: Q01DX009 (ip), vehicle: water 96 % of control | dose: 1.56 mg/kg/injection, schedule: Q01DX009 (ip), vehicle: water 89 % of control | dose: 3.13 mg/kg/injection, schedule: Q01DX009 (ip), vehicle: water 100 % of control | dose: 6.25 mg/kg/injection, schedule: Q01DX009 (ip), vehicle: water 115 % of control | dose: 12.5 mg/kg/injection, schedule: Q01DX009 (ip), vehicle: water 108 % of control | dose: 25.0 mg/kg/injection, schedule: Q01DX009 (ip), vehicle: water 102 % of control and 117 % of control | dose: 50.0 mg/kg/injection, schedule: Q01DX009 (ip), vehicle: water 100 % of control | dose: 100.0 mg/kg/injection, schedule: Q01DX009 (ip), vehicle: water 100 % of control | dose: 200.0 mg/kg/injection, schedule: Q01DX009 (ip), vehicle: water 101 % of control

O=[N+]([O-])c1cccc2c1nnn2OC1CCCC1
inactive: dose: 100.0 mg/kg/injection, schedule: Q01DX001 (ip), vehicle: saline with Tween-80 102 % of control | dose: 200.0 mg/kg/injection, schedule: Q01DX001 (ip), vehicle: saline with Tween-80 98 % of control

Cc1nn(-c2ccc(Cl)cc2)c2c1c(=O)[nH]c1ccccc12
inactive: dose: 3.75 mg/kg/injection, schedule: Q01DX005 (ip), vehicle: saline with Tween-80 98 % of control | dose: 7.5 mg/kg/injection, schedule: Q01DX005 (ip), vehicle: saline with Tween-80 92 % of control | dose: 15.0 mg/kg/injection, schedule: Q01DX005 (ip), vehicle: saline with Tween-80 87 % of control and 88 % of control | [1] 87 % of control

CC1COS(=O)O1 (stereo not given)
inactive: dose: 20.0 mg/kg/injection, schedule: Q01DX009 (ip), vehicle: saline sonified 109 % of control | dose: 40.0 mg/kg/injection, schedule: Q01DX009 (ip), vehicle: saline sonified 109 % of control

COc1ccc2[nH]c(C)cc2c1CN
inactive: dose: 3.12 mg/kg/injection, schedule: Q01DX009 (ip), vehicle: saline 113 % of control | dose: 6.25 mg/kg/injection, schedule: Q01DX009 (ip), vehicle: saline 101 % of control | [5] 112 % of control

Cc1nc(N(C)C)oc(=O)c1Cc1ccccc1
inactive: [1] 102 % of control | [2] 100 % of control | [3] 100 % of control

CC12CC(C(=O)O)C3(O)CC(C)(C1)CC(C)(C2)C3 (stereo not given) (tested in a mixture with another compound)
inactive: [9] 109 % of control | [10] 118 % of control

Cc1cc(N=[N+]=[N-])c2ccc(F)cc2n1
inactive: [1] 94 % of control | [2] 92 % of control

CN(CN1C(=O)CCC1=O)CN1C(=O)CCC1=O
inactive: dose: 30.0 mg/kg/injection, schedule: Q01DX005 (ip), vehicle: saline 106 % of control | dose: 60.0 mg/kg/injection, schedule: Q01DX005 (ip), vehicle: saline 106 % of control and 110 % of control | dose: 120.0 mg/kg/injection, schedule: Q01DX005 (ip), vehicle: saline 108 % of control | dose: 240.0 mg/kg/injection, schedule: Q01DX005 (ip), vehicle: saline 119 % of control

COC(=O)C(CC(C)C)NC(=O)C(Cc1c[nH]c2ccccc12)NC(=O)OC(C)(C)C (stereo not given)
inactive: dose: 10.7 mg/kg/injection, schedule: Q01DX009 (ip), vehicle: other 100 % of control | dose: 21.3 mg/kg/injection, schedule: Q01DX009 (ip), vehicle: other 93 % of control | dose: 42.5 mg/kg/injection, schedule: Q01DX009 (ip), vehicle: other 93 % of control | dose: 85.0 mg/kg/injection, schedule: Q01DX009 (ip), vehicle: other 93 % of control | dose: 170.0 mg/kg/injection, schedule: Q01DX009 (ip), vehicle: other 98 % of control

O=C(CNSc1ccc([N+](=O)[O-])cc1[N+](=O)[O-])OCc1ccccc1
inactive: dose: 50.0 mg/kg/injection, schedule: Q01DX005 (ip), vehicle: saline + Tween-80 + alcohol 100 % of control | dose: 100.0 mg/kg/injection, schedule: Q01DX005 (ip), vehicle: saline + Tween-80 + alcohol 106 % of control | dose: 200.0 mg/kg/injection, schedule: Q01DX005 (ip), vehicle: saline + Tween-80 + alcohol 97 % of control

COc1ccc(/C(CC2(O)C(=O)Nc3ccccc32)=N\NC(=O)NN)cc1O (stereo not given)
inactive: [6] 101 % of control | [7] 107 % of control | [8] 100 % of control

COCC12CCC(OC)C34C5CC6(O)C(OC)C=C(C5C6OC(=O)c5ccccc5)C(C(OC)C13)C4N(C)C2 (stereo not given)
inactive: dose: 25.0 mg/kg/injection, schedule: Q01DX009 (ip), vehicle: Klucel (hydroxypropylcellulose) (HPC) 100 % of control | [9] 95 % of control | [10] 100 % of control

N#Cc1c(-c2ccccc2)c(-c2ccccc2)nn(CCC(=O)O)c1=O
inactive: dose: 25.0 mg/kg/injection, schedule: Q04DX002 (ip), vehicle: distilled water + Tween-80 101 % of control | dose: 50.0 mg/kg/injection, schedule: Q04DX002 (ip), vehicle: distilled water + Tween-80 102 % of control | dose: 100.0 mg/kg/injection, schedule: Q04DX002 (ip), vehicle: distilled water + Tween-80 108 % of control
